Source: patent publication US20240199605A1, “SMALL MOLECULAR INHIBITORS OF NF-kB INDUCING KINASE” (Janssen Pharmaceutica NV, priority 2019, published 2024)
Where two headings read alike, the source gives them in different places.

Columns and labels:
[1] = tested on: p-IKKα levels in L363 (NIK translocated multiple myeloma) cells; test: Effect of compounds on p-IKKα levels in L363 cells (AlphaLISA SureFire Ultra); type: cell-based, human; conditions: BAFF stimulated, MG132, 6 h, average of values, read-out: Assay 2 IC50
Summary of the method: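 Inhibition of p-IKKα (Ser176/180) read by AlphaLISA after 6 h, 37 °C compound exposure (11-point 1:3 series, 0.3% DMSO) of L363 cells pre-incubated overnight ± 250 ng/ml BAFF and plated ± BAFF ± 10 μM MG132. Normalised to BAFF/MG132/DMSO and unstimulated controls; IC50 by sigmoidal fitting, duplicates.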

[2] = target: recombinant human NF-kappaB-inducing kinase (NIK/MAP3K14) (Homo sapiens (Human), UniProt Q99558); test: Inhibition of auto-phosphorylation of recombinant human NIK/MAP3K14 (AlphaScreen); type: biochemical; conditions: NIK auto-phosphorylation, 5 μM ATP, 1 nM NIK, 2 h at 25° C.; average of values
Summary of the method: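 GST-tagged NIK (1 nM) auto-phosphorylated with 5 μM ATP for 2 h at 25° C. in 50 mM Tris pH 7.5, 5 mM MgCl2, 1 mM EGTA, 1 mM DTT, 0.1 mM Na3VO4, 0.01% Tween 20 (0.7% DMSO). Detected by AlphaScreen via anti-phospho-IKK Ser176/180 antibody; IC50 from sigmoidal fit of % inhibition versus log concentration.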

Chain of recombinant human NF-kappaB-inducing kinase (NIK/MAP3K14) (Q99558 whole entry): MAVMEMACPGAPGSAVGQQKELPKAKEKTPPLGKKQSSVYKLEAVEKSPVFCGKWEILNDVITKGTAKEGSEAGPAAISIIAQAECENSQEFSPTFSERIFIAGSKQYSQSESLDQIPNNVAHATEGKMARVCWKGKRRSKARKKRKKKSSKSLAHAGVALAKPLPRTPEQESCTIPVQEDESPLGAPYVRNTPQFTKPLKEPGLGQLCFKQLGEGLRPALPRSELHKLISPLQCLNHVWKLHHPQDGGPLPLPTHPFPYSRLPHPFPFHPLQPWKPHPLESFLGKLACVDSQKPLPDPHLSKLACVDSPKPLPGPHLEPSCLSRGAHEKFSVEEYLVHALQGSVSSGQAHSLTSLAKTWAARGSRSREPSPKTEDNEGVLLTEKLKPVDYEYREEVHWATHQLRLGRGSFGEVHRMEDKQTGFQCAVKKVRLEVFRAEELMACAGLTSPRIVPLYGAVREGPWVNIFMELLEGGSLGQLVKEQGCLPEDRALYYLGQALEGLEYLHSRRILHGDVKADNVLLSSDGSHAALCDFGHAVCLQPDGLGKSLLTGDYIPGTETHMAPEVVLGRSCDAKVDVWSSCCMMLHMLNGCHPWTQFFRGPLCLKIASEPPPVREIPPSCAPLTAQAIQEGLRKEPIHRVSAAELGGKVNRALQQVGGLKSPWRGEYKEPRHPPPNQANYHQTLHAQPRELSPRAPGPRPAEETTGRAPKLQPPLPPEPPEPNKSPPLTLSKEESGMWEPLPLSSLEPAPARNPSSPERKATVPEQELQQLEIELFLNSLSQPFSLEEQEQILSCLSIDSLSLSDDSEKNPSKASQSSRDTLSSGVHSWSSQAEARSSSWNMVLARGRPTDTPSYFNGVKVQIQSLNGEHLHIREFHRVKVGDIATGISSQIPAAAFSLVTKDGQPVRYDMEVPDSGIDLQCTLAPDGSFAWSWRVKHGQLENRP

| SMILES | IC50 ([1]; Homo sapiens, L-363, 6 h) | IC50 [2] | IC50 [1] |
| --- | --- | --- | --- |
| [2H]c1nc(N)c2nc(-c3cccc(C#C[C@]4(O)CCN(C)C4=O)c3)cc(C(C)C)c2n1 [Example 283, (R)-3-((3-(4-Amino-8-isopropylpyrido[3,2-d]pyrimidin-6-yl-2-d)phenyl)ethynyl)-3-hydroxy-1-methylpyrrolidin-2-one] | 1.4 nM | 0.6 nM |  |
| Cc1nc(N)c2nc(-c3cccc(C#CC(C)(O)c4c[nH]cn4)c3)ccc2n1 (racemic) [Example 202, racemic-4-(3-(4-Amino-2-methylpyrido[3,2-d]pyrimidin-6-yl)phenyl)-2-(1H-imidazol-4-yl)but-3-yn-2-ol] | 280 nM | 1 nM |  |
| Nc1nccc2cnc(-c3cccc(C#C[C@@]4(O)CCn5ccnc54)c3)nc12 [Example 64, (S)-7-[2-[3-(8-Aminopyrido[3,4-d]pyrimidin-2-yl)phenyl]ethynyl]-5,6-dihydropyrrolo[1,2-a]imidazol-7-ol] | 730 nM | 31 nM |  |
| CN1CC[C@@](O)(C#Cc2cccc(-c3ccc4c(C#N)cnc(N)c4n3)c2)C1=O [Example 118, (R)-8-Amino-2-[3-[2-(3-hydroxy-1-methyl-2-oxo-pyrrolidin-3-yl)ethynyl]phenyl]-1,7-naphthyridine-5-carbonitrile] | 1.5 nM | ≤ 0.5 nM |  |
| [2H]c1nc(N)c2nc(-c3cc(C#C[C@]4(O)CCN(C)C4=O)ccc3OC(F)(F)F)ccc2n1 [Example 29, (R)-3-((3-(4-aminopyrido[3,2-d]pyrimidin-6-yl-2-d)-4-(trifluoromethoxy)phenyl)ethynyl)-3-hydroxy-1-methylpyrrolidin-2-one] | 45 nM | 4.1 nM |  |
| Cc1ccc(C#C[C@@]2(O)CCN(C)C2=O)cc1-c1ccc2ncnc(N)c2n1 [Example 260, (S)-3-((3-(4-Aminopyrido[3,2-d]pyrimidin-6-yl)-4-methylphenyl)ethynyl)-3-hydroxy-1-methylpyrrolidin-2-one] | 2740 nM | 110 nM |  |
| CN1CC[C@@](O)(C#Cc2cccc(-c3ncc4ccnc(N5CCC5)c4n3)c2)C1=O [Example 247, (R)-3-((3-(8-(Azetidin-1-yl)pyrido[3,4-d]pyrimidin-2-yl)phenyl)ethynyl)-3-hydroxy-1-methylpyrrolidin-2-one] | > 5000 nM | 850 nM |  |
| Cc1nnc([C@](C)(O)C#Cc2cccc(-c3ncc4ccnc(N)c4n3)c2)o1 [Example 18, (R)-4-[3-(8-Aminopyrido[3,4-d]pyrimidin-2-yl)phenyl]-2-(5-methyl-1,3,4-oxadiazol-2-yl)but-3-yn-2-ol] | 61 nM | 0.9 nM |  |
| Cc1nc(N)c2nc(-c3cccc(C#CC4(O)CCCc5cccnc54)c3)ccc2n1 (racemic) [Example 165, racemic-8-((3-(4-Amino-2-methylpyrido[3,2-d]pyrimidin-6-yl)phenyl)ethynyl)-5,6,7,8-tetrahydroquinolin-8-ol] | > 5000 nM | 120 nM |  |
| CN1CC[C@@](O)(C#Cc2cccc(-c3ccc4[nH]nc(N)c4c3)c2)C1=O [Example 174, (R)-3-[2-[3-(3-Amino-1H-indazol-5-yl)phenyl]ethynyl]-3-hydroxy-1-methyl-pyrrolidin-2-one] | > 5000 nM | 830 nM |  |
| [2H]c1nc(N)c2nc(-c3cccc(C#CC4(O)CCN(CC=C)C4=O)c3)ccc2n1 (racemic) [Example 196, racemic-1-Allyl-3-((3-(4-aminopyrido[3,2-d]pyrimidin-6-yl-2-d)phenyl)ethynyl)-3-hydroxypyrrolidin-2-one] | 250 nM | 4.4 nM |  |
| Cc1nc(-c2cccc(C#Cc3ccn[nH]3)c2)nc2c(N)nccc12 [Example 107, 2-(3-((1H-Pyrazol-5-yl)ethynyl)phenyl)-4-methylpyrido[3,4-d]pyrimidin-8-amine] | > 5000 nM | 52 nM |  |
| Cc1nc(N)c2c(n1)CCN(c1cccc(C#C[C@]3(O)CCN(C)C3=O)c1)C2 [Example 215, (R)-3-((3-(4-Amino-2-methyl-7,8-dihydropyrido[4,3-d]pyrimidin-6(5H)-yl)phenyl)ethynyl)-3-hydroxy-1-methylpyrrolidin-2-one] | 900 nM | 16 nM |  |
| CN1CC[C@@](O)(C#Cc2cccc(-c3ccc4ncnc(N5CCC5)c4n3)c2)C1=O [Example 26, (R)-3-((3-(4-(Azetidin-1-yl)pyrido[3,2-d]pyrimidin-6-yl)phenyl)ethynyl)-3-hydroxy-1-methylpyrrolidin-2-one] | 58 nM | 1.2 nM |  |
| [2H]c1nc(N)c2nc(-c3cccc(C#C[C@]4(O)CCN(C)C4=O)c3)cc(CN)c2n1 [Example 282, (R)-3-((3-(4-Amino-8-(aminomethyl)pyrido[3,2-d]pyrimidin-6-yl-2-d)phenyl)ethynyl)-3-hydroxy-1-methylpyrrolidin-2-one] | 205 nM | 5.6 nM |  |
| Cc1ccc(-c2ncc3ccnc(N)c3n2)cc1C#C[C@]1(O)CCN(C)C1=O [Example 40, (R)-3-((5-(8-Aminopyrido[3,4-d]pyrimidin-2-yl)-2-methylphenyl)ethynyl)-3-hydroxy-1-methylpyrrolidin-2-one] | 210 nM | 0.7 nM |  |
| CN1CC[C@@](O)(C#Cc2cccc(-c3cc4c(N)ncnc4s3)c2)C1=O [Example 141, (R)-3-((3-(4-Aminothieno[2,3-d]pyrimidin-6-yl)phenyl)ethynyl)-3-hydroxy-1-methylpyrrolidin-2-one] | 2450 nM | 16 nM |  |
| CN1CC[C@@](O)(C#Cc2cccc(-c3ncc4c(CC(C)(C)C)cnc(N)c4n3)c2)C1=O [Example 151, (R)-3-((3-(8-Amino-5-neopentylpyrido[3,4-d]pyrimidin-2-yl)phenyl)ethynyl)-3-hydroxy-1-methylpyrrolidin-2-one] | 28 nM | 0.7 nM |  |
| [2H]C([2H])([2H])N1CC[C@@](O)(C#Cc2cccc(-c3nc(C)c4ccnc(N)c4n3)c2)C1=O [Example 83, (R)-3-((3-(8-Amino-4-methylpyrido[3,4-d]pyrimidin-2-yl)phenyl)ethynyl)-3-hydroxy-1-(methyl-da)pyrrolidin-2-one] | 3.2 nM | ≤ 0.5 nM |  |
| CN1CC[C@@](O)(C#Cc2cccc(-c3cc(N4CC5(C4)CC5(F)F)c4ncnc(N)c4n3)c2)C1=O [Example 307, (R)-3-[2-[3-[4-Amino-8-(2,2-difluoro-5-azaspiro[2.3]hexan-5-yl)pyrido[3,2-d]pyrimidin-6-yl]phenyl]ethynyl]-3-hydroxy-1-methyl-pyrrolidin-2-one] | 40 nM | 1.6 nM |  |
| [2H]C([2H])([2H])N1CC[C@@](O)(C#Cc2ccc(C)c(-c3ccc4ccnc(N)c4c3)c2)C1=O (single isomer, unassigned) [Example 71] |  | 4220 nM | > 5000 nM |
| C[C@@](O)(C#Cc1cccc(-c2ccc3ncnc(N)c3c2)c1)c1nccs1 [Example 105, (R)-4-[3-(4-Aminoquinazolin-6-yl)phenyl]-2-thiazol-2-yl-but-3-yn-2-ol] | 64 nM | 0.6 nM |  |
| CN1CC[C@@](O)(C#Cc2cccc(-c3cc(N(C)C)c4ncnc(N)c4n3)c2)C1=O [Example 295, (R)-3-[2-[3-[4-Amino-8-(dimethylamino)pyrido[3,2-d]pyrimidin-6-yl]phenyl]ethynyl]-3-hydroxy-1-methyl-pyrrolidin-2-one] | 18 nM | 3.1 nM |  |
| Cc1nc(N)c2nc(-c3cccc(C#C[C@]4(O)C(=O)N(C)C[C@H]4C)c3)ccc2n1 (stereo in doubt) [Example 294, (3S,4R*)-3-((3-(4-Amino-2-methylpyrido[3,2-d]pyrimidin-6-yl)phenyl)ethynyl)-3-hydroxy-1,4-dimethylpyrrolidin-2-one] | 2460 nM | 390 nM |  |
| CN1CC[C@@](O)(C#Cc2cccc(-c3cc(Oc4cnn(C(F)F)c4)c4ncnc(N)c4n3)c2)C1=O [Example 305, (R)-3-[2-[3-[4-Amino-8-[1-(difluoromethyl)pyrazol-4-yl]oxy-pyrido[3,2-d]pyrimidin-6-yl]phenyl]ethynyl]-3-hydroxy-1-methyl-pyrrolidin-2-one] | 64 nM | 2.2 nM |  |
| Cc1ccc(C#C[C@]2(O)CCN(C)C2=O)cc1N1CCc2ncnc(N)c2C1 [Example 220, (R)-3-((3-(4-Amino-7,8-dihydropyrido[4,3-d]pyrimidin-6(5H)-yl)-4-methylphenyl)ethynyl)-3-hydroxy-1-methylpyrrolidin-2-one] | 65 nM | 1.3 nM |  |
| Cc1nc(N)c2nc(-c3cc(C#C[C@]4(O)CCN(C)C4=O)ccc3C)ccc2n1 [Example 150, (R)-3-((3-(4-Amino-2-methylpyrido[3,2-d]pyrimidin-6-yl)-4-methylphenyl)ethynyl)-3-hydroxy-1-methylpyrrolidin-2-one] | 320 nM | 4.7 nM |  |
| CN1CC[C@](O)(C#Cc2cccc(-c3ncc4ccnc(N)c4n3)c2)C1=O [Example 2, (S)-3-[2-[3-(8-Aminopyrido[3,4-d]pyrimidin-2-yl)phenyl]ethynyl]-3-hydroxy-1-methyl-pyrrolidin-2-one] | > 5000 nM | 160 nM |  |
| CN1CC[C@@](O)(C#Cc2cccc(-c3nc4ncnc(N)c4s3)c2)C1=O [Example 214, (R)-3-((3-(7-Aminothiazolo[4,5-d]pyrimidin-2-yl)phenyl)ethynyl)-3-hydroxy-1-methylpyrrolidin-2-one] | > 5000 nM | 320 nM |  |
